Assay results reported in US6465483B1, “Annelated dihydropyridines and the use thereof for preparing pharmaceutical preparations” (Boehringer Ingelheim GmbH, priority 1993, dated 2002).

Assays:
RBL-2H3-cells = assay: Antigen (DNP-BSA)-induced activation of sensitised RBL-2H3-cells, fluorometric cytoplasmic calcium measurement; format: cell-based, rat; conditions: 10 μM
Experimental: Individual RBL-2H3-cells (a tumour cell line related to the mast cells) adhering to glass slides are used.
The cultivation and attachment of the RBL-2H3-cells are carried out by the method described by HIDE and BEAVEN (1991). In order to sensitise the adhesive RBL-2H3-cells the cells are incubated for 2 hours at ambient temperature with a 1:2000 diluted commercial gammaglobulin E-solution against a dinitrophenol-bovine serum albumin complex (DNP-BSA-antigen). The cells are then washed. By the addition of 0.1 ml of DNP-BSA-solution (10 μg/ml) there is a massive immunological cell activation which is mediated by a cytoplasmic Ca^2+-overload. The fluorometric calcium measurement in the cytoplasm of individual adhering RBL-2H3-cells is carried out analogously to the method described by KUDO and OGURA (1986) for neuronal cells, which is also explained hereinbefore in this specification.
The comparison used in these investigations is (10 μM) chromoglycate which brings about an approximately 50% inhibition of the antigen-induced cell activation.

[1] = system: unselective cation channels (UCC); assay: Inhibition of Ca2+ entry through unselective cation channels after Thapsigargin stimulation, fura-2-charged RBL-hm 1 cells; format: cell-based, rat; conditions: Table 5, 0.1 μM Thapsigargin, test substance 10^−5 M
Experimental: For screening purposes, fura-2-charged adhesive RBL-hm 1 cells are stimulated with 0.1 μM Thapsigargin in a Ca^2+-free incubation medium. After 4 minutes, extracellular Ca^2+ is restored to a concentration of 1.5 mM and, using the fura-2-fluorescence, the excessive increase in the cytoplasmic Ca^2+-concentration caused by a massive transmembranal Ca^2+-entry through unselective cation channels is recorded.
The kinetics of the cytoplasmic Ca^2+-concentration is recorded continuously as a concentration/time curve after the cell activation stimulated by Thapsigargin (0.1 μM). The curves of two activated cell cultures are compared in the presence and absence of 10 μM test substance. The area under these curves (area under the curve=AUC) is integrated and recorded as a measurement of cell activation. The inhibitory potency of the UCC-blockers tested is determined using the following equation: [formula]
AUCinh area under the curve recorded in the presence of the stimulant plus 10 μM inhibitory test substance.
AUC control=area under the curve which is recorded only after the addition of the stimulant.
The uniform concentration of the test substances is 10^−5 mol or 10^−6 mol)

Compound: O=C(O)c1cc(=O)c2c(OCC(O)COc3cccc4oc(C(=O)O)cc(=O)c34)cccc2o1 [chromoglycate]
- inhibition of the antigen-induced cell activation (RBL-2H3-cells): approximately 50%

Compound: COc1cc2c(cc1OC)C(C(C(=O)N(Cc1ccccc1)Cc1ccccc1)c1ccsc1)=NCC2 (racemic) [(R,S)-(3,4-Dihydro-6,7-dimethoxyisoquinolin-1-yl)-2-(3-thienyl)-N,N-dibenzyl-acetamide]
- % H (10^−5 M), percentage inhibition of UCC after Thapsigargin stimulation [1]: 90.9%
